Laboratory results from patent publication US20110281812A1, “Compounds” (priority 2009, published 2011).
Where two headings read alike, the source gives them in different places.

How the values were obtained:
[1] = test system: IL-6 production in LPS-stimulated murine spleenocytes; assay: Inhibition of IL-6 production in LPS-stimulated murine spleenocytes in vitro; assay type: cell-based; details: Mus musculus, 50 μM concentration of the compound, read-out: inhibition of interleukin-6 (IL-6) production
Description: Test and reference substances used in an in vitro assays were dissolved in dimethyl sulfoxide (DMSO) (Sigma Chemical Co., USA) at a concentration of 50 mM and were further diluted to test concentrations in appropriate cell culture medium.
After cervical dislocation, mouse spleens were removed using sterile dissection tools. Spleens were transferred to a pre-wetted cell strainer in a 50 mL sterile conical tube and cell suspension was made by gentle puddle. Cells were centrifuged (20 min, 300×g) and resuspended in 2 mL of sterile phosphate buffered saline (PBS) (Sigma Chemical Co., USA). Red blood cells were lysed by addition of 3 mL of sterile water and occasionally gentle shaking for 1 minute. Afterwards, the tube was filled to 40 mL with DMEM medium and centrifuged (20 min, 300×g). Cells were resuspended in DMEM supplemented with 1% FBS and seeded in a 24-well plate, 1×10^6 cells per mL medium.
Final concentrations of 50 μM, 25 μM, 12.5 μM, 6.3 μM and 3.1 μM of test compounds were prepared by diluting a 50 mM DMSO stock in Dulbecco's modified Eagle medium (DMEM) (Gibco, USA) supplemented with 1% heat inactivated fetal bovine serum (FBS) (BioWest, Ringmer, United Kingdom).
Cells were pre-incubated with the test compounds for 3 h at 37° C., in an atmosphere of 5% CO2 and 90% humidity. Afterwards, cells were stimulated with 1 μg/mL lipopolysaccharide (LPS, E. coli 0111:B4, Sigma Chemical Co., USA) and incubated overnight. Concentration of IL-6 was determined in cell supernatants by sandwich ELISA using capture and detection antibodies (R&D Systems, USA) according to the manufacturer's recommendations.
Inhibition (as percentage) was calculated using the following formula:
% inhibition=[1−(concentration of IL-6 in sample−concentration of IL-6 in negative control)/(concentration of IL-6 in positive control−concentration of IL-6 in negative control)]×100.
The positive control refers to LPS-stimulated samples that were not preincubated with the compounds.
The negative control refers to unstimulated and untreated samples.

Male BALB/c mice = assay: Cigarette-smoke-induced lung neutrophilia; assay type: in vivo; details: oral gavage; for reduction of neutrophil number in BALF, statistical significance: p<0.05 vs vehicle control
Description: Male BALB/c mice (weighing 21-24 g, were randomly grouped, 5 animals per group) were pre-treated with compound (100, 30, 10, 3 and 1 mg/kg body weight) or vehicle (5% DMSO/95% methyl-cellulose 0.5% w/v, positive control) by oral gavage in a volume of 10 mL/kg. 2 hours after compound administration, 10 mice were placed into a plexiglass box (Braintree Scientific, size 10″×4″×4″) with an input port for aerosol and another port for exhaust. Cigarette smoke was introduced through the aerosol port via a peristaltic pump (Masterflex L/S, Digital Economy Drive) set at 40 ml/min. Breathing air was also introduced through the same port via an elbow in the tubing at a rate of 0.4 L/min. With these settings, smoke concentration delivered to the box was approximately 10%. 3 cigarettes (research type 4A1, University of Kentucky Tobacco Institute) were given back-to-back with a 1 min period between each one, when the mice breathed fresh air for one minute. 2 to 3 hours after the first group of cigarettes, 2 additional cigarettes were given, again allowing 1 min between each cigarette. After the last cigarette, the mice were returned to their normal housing. This procedure was carried out for 2 days.
On the 3rd day, mice were euthanized with 0.1 ml Fatal Plus i.p., then bronchoalveolar lavaged with 5×0.7 ml Dulbecco's phosphate-buffered saline (dPBS, in-house Media Prep lab) through a tracheal tube. BALF was spun at 3000 rpm for 10 min, the supernatant discarded, and the cells resuspended with 1 ml dPBS. Slides were made on a cytospin (100 μl fluid, spun at 300 rpm for 5 min), then stained with Diff Quick for differential counts (minimum of 200 cells counted). Total cell counts were performed with a hemocytometer after a dilution with Tuerks solution.
Results are expressed as percentage decrease in number of neutrophils in BALF of treated animals compared to positive control (vehicle treated and smoke challenged animals).

male BALB/cJ mice = assay: Lung neutrophilia induced by bacterial lipopolysaccharide in male BALB/cJ mice - Method B; assay type: in vivo; details: Mus musculus, ip, 24 h, single dose of 100 mg/kg i.p., vs LPS challenged untreated animals
Description: For intraperitoneal administration (i.p.) compounds were dissolved in a final concentration of 10 mg/mL. The required amount of compound was first dissolved in dimethylsulfoxide (DMSO, Sigma) and then diluted with 0.5% (w/v) methyl-cellulose so that the final DMSO concentration was 5% (v/v). The obtained solution was applied in a dose volume of 0.1 mL per 10 g of animal. Therefore, the compound dose was 100 mg/kg.
Male BALB/cJ mice (Charles River, Germany), with an average weight of ˜25 g were randomly grouped (n=8 in testing group, 10 in positive control and 6-8 in negative control). Mice received intraperitoneally (i.p.) a single dose of 100 mg/kg of test compound. Two hours after administration, 0.4 μg of LPS (from Escherichia coli serotype 0111:B4, Sigma), dissolved in sterile saline (0.9% NaCl) in a volume of 50 μL, was intranasally administered to all experimental groups except the negative control group, which received the same volume of vehicle (saline). Animals were sacrificed approximately 24 hours after application of LPS in order to obtain bronchoalveolar lavage fluid (BALF), which was used to determine absolute number of cells and the percentage of neutrophils. […] In some experiments neutrophil levels in BALF were assessed by measurement of concentration of a neutrophil-specific enzyme myeloperoxidase (MPO). Results are then expressed as percentage of decrease in myeloperoxidase (MPO) concentration measured in BALF lysates of treated animals compared to positive control (Mouse MPO ELISA Kit, Hycult biotechnology, Nederlands). For this purpose, BALF was sonicated after addition of 1.5% Triton-X-100 (Pharmacia Biotech) in Milli-Q water and frozen at −80° C. until analysed.

[2] = Neutrophil, read-out: inhibition of number of neutrophils or decrease in myeloperoxidase concentration in BALF
[3] = read-out: inhibition of total cell number in BALF

SMILES	inhibition at 50 µM [1] [%]	reduction of neutrophil number in BALF, statistical significance (Male BALB/c mice; dose of 100 mg/kg)	inhibition of neutrophil number in BALF (Male BALB/c mice; dose of 100 mg/kg, vs vehicle treated smoke challenged animals)	inhibition in vivo at 100 mg/kg (male BALB/cJ mice; [2]) [%]	inhibition in vivo at 100 mg/kg (male BALB/cJ mice; [3]) [%]	reduction of neutrophil number in BALF, statistical significance (Male BALB/c mice; dose of 30 mg/kg)
CCC(=O)NCCCO[C@H]1[C@H](O[C@@H]2[C@@H](C)[C@H](O[C@H]3C[C@@](C)(OC)[C@@H](O)[C@H](C)O3)[C@@H](C)C(=O)O[C@H](CC)[C@@](C)(O)[C@H](O)[C@@H](C)N(C)C[C@H](C)C[C@@]2(C)O)O[C@H](C)C[C@@H]1N(C)C [Example 2, 2′-O-[3-(Propanoylamino)propyl]-9-deoxo-9a-methyl-9a-aza-9a-homoerythromycin A]	> 40	no statistical significance	less than 10%	–	–	–
CC[C@H]1OC(=O)[C@H](C)[C@@H](O[C@H]2C[C@@](C)(OC)[C@@H](O)[C@H](C)O2)[C@H](C)[C@@H](O[C@@H]2O[C@H](C)C[C@H](N(C)C)[C@H]2OCCCNC(=O)COC)[C@](C)(O)C[C@@H](C)CN(C)[C@H](C)[C@@H](O)[C@]1(C)O [Example 16, 2′-O-{3-[(Methoxyacetyl)amino]propyl}-9-deoxo-9a-methyl-9a-aza-9a-homoerythromycin A]	> 40	–	–	> 50	> 50	statistically significantly reduced
CC[C@H]1OC(=O)[C@H](C)[C@@H](O[C@H]2C[C@@](C)(OC)[C@@H](O)[C@H](C)O2)[C@H](C)[C@@H](O[C@@H]2O[C@H](C)C[C@H](N(C)C)[C@H]2OCCCNC(=O)CCCC(=O)OC)[C@](C)(O)C[C@@H](C)CN(C)[C@H](C)[C@@H](O)[C@]1(C)O [Example 14, 2′-O-(3-{[5-(Methyloxy)-5-oxopentanoyl]amino}propyl)-9-deoxo-9a-methyl-9a-aza-9a-homoerythromycin A]	> 40	–	–	> 30	> 30	–
CCOCC(=O)NCCCO[C@H]1[C@H](O[C@@H]2[C@@H](C)[C@H](O[C@H]3C[C@@](C)(OC)[C@@H](O)[C@H](C)O3)[C@@H](C)C(=O)O[C@H](CC)[C@@](C)(O)[C@H](O)[C@@H](C)N(C)C[C@H](C)C[C@@]2(C)O)O[C@H](C)C[C@@H]1N(C)C [Example 21, 2′-O-{3-[(Ethyloxyacetyl)amino]propyl}-9-deoxo-9a-methyl-9a-aza-9a-homoerythromycin A]	> 40	–	–	> 50	> 50	statistically significantly reduced
